Reference: BigSolDB 2.1

CC(C)=CCC[C@@H](C)[C@H]1CC[C@@]2(C)C3=C(CC[C@]12C)[C@@]1(C)CC[C@H](O)C(C)(C)[C@@H]1CC3
Details	solubility (mole fraction)
in DMF, 277.15 K	0.00035
in DMF, 284.65 K	0.00051
in DMF, 289.15 K	0.00063
in DMF, 294.65 K	0.00073
in DMF, 297.35 K	0.00089
in DMF, 300.15 K	0.00103
in DMF, 303.05 K	0.00138
in DMF, 308.46 K	0.00187
in DMF, 318.55 K	0.00294
in DMSO, 293.95 K	0.00015
in DMSO, 297.65 K	0.00019
in DMSO, 302.35 K	0.00024
in DMSO, 307.15 K	0.00031
in DMSO, 312.95 K	0.00042
in DMSO, 318.69 K	0.00057
in DMSO, 337.99 K	0.00136
in acetone, 278.65 K	0.00066
in acetone, 283.75 K	0.00087
in acetone, 288.45 K	0.00105
in acetone, 293.25 K	0.00127
in acetone, 298.05 K	0.00157
in acetone, 302.75 K	0.00193
in acetone, 307.55 K	0.00237
in acetone, 318.36 K	0.0036
in acetonitrile, 277.09 K	3e-05
in acetonitrile, 288.55 K	6e-05
in acetonitrile, 293.35 K	9e-05
in acetonitrile, 298.15 K	0.00013
in acetonitrile, 303.05 K	0.00015
in acetonitrile, 307.55 K	0.00019
in acetonitrile, 312.25 K	0.00026
in acetonitrile, 317.05 K	0.00038
in ethanol, 277.95 K	0.00036
in ethanol, 285.74 K	0.00053
in ethanol, 293.45 K	0.00075
in ethanol, 298.25 K	0.00092
in ethanol, 307.15 K	0.00135
in ethanol, 312.35 K	0.00168
in ethanol, 318.05 K	0.00214
in ethyl acetate, 277.67 K	0.00076
in ethyl acetate, 288.55 K	0.00127
in ethyl acetate, 293.25 K	0.00165
in ethyl acetate, 298.05 K	0.00187
in ethyl acetate, 302.85 K	0.00235
in ethyl acetate, 307.45 K	0.00284
in ethyl acetate, 318.64 K	0.00443
in isopropanol, 278.07 K	0.00047
in isopropanol, 287.81 K	0.0006
in isopropanol, 298.84 K	0.00095
in isopropanol, 307.27 K	0.00159
in methanol, 277.78 K	3e-05
in methanol, 288.15 K	5e-05
in methanol, 298.15 K	9e-05
in methanol, 303.05 K	0.00011
in methanol, 312.15 K	0.00016
in methanol, 316.95 K	0.00021
in methanol, 321.65 K	0.00032
in n-propanol, 278.07 K	0.0009
in n-propanol, 287.81 K	0.00144
in n-propanol, 298.84 K	0.00209
in n-propanol, 307.27 K	0.00304
in n-propanol, 318.93 K	0.00478
